Measured values reported in paper PMC3314994, “Inhibitors of human histone deacetylase with potent activity against the African trypanosome Trypanosoma brucei” (Bioorganic & Medicinal Chemistry Letters, 2012).

What was measured:
HDAC (FDL_HELA) = assay: Histone deacetylase activity in HeLa cell lysates (fluorescent assay kit); assay type: biochemical, Human; conditions: lysed HeLa cells; read-out: HDAC (FDL_HELA) IC50 ± SD
Method: (§1) The compounds from the different structural subclasses were all active as HDAC inhibitors, measured in an assay of enzymes in HeLa cell lysates.[23,24] HeLa cells express multiple HDACs, including HDAC 1, 2, 3, 4, and 8.[25–27] […] To further characterise the compounds with respect to HDAC selectivity, we determined their inhibitory properties against recombinant expressed human HDACs (rhHDAC 1–4, 6–9).[28]
[24] Histone deacetylase activity was determined in lysed Human cervix epithelial cancer HeLa cells. To determine the IC50 of test compound a commercially available fluorescent assay kit was used employing an acetylated enzyme substrate.[23]

Trypanosoma brucei (BSF) = assay: Growth inhibition of cultured bloodstream form T. brucei; assay type: cell-based, Trypanosoma brucei (strain 427); conditions: Trypanosoma brucei, cultured bloodstream form, strain 427, triplicate; for IC50: read-out: Trypanosoma brucei (BSF) IC50 ± SD; for IC90: read-out: Trypanosoma brucei (BSF) IC90 ± SD
Method: Treatment of parasites with micromolar levels of these inhibitors could result in cell death within 4 h (Fig. 1).
[30] Growth inhibitory properties against cultured bloodstream form T. brucei were determined as described previously.[29] Experiments were performed in triplicate and data are presented as ±SD.

rhHDAC 9 = rhHDAC 9 (Homo sapiens, UniProt Q9UKV0); assay: Inhibition of recombinant human HDAC isoforms; assay type: biochemical; conditions: mean ± SD, triplicate per plate, min two plates; read-out: ED50 rhHDAC 9
Description: as §1

rhHDAC 7 = biological target: T1, rhHDAC 7 (Homo sapiens, UniProt Q8WUI4); assay: Inhibition of recombinant human HDAC isoforms; assay type: biochemical; conditions: mean ± SD, triplicate per plate, min two plates; read-out: ED50 rhHDAC 7
T1 sequence (Q8WUI4 1-952): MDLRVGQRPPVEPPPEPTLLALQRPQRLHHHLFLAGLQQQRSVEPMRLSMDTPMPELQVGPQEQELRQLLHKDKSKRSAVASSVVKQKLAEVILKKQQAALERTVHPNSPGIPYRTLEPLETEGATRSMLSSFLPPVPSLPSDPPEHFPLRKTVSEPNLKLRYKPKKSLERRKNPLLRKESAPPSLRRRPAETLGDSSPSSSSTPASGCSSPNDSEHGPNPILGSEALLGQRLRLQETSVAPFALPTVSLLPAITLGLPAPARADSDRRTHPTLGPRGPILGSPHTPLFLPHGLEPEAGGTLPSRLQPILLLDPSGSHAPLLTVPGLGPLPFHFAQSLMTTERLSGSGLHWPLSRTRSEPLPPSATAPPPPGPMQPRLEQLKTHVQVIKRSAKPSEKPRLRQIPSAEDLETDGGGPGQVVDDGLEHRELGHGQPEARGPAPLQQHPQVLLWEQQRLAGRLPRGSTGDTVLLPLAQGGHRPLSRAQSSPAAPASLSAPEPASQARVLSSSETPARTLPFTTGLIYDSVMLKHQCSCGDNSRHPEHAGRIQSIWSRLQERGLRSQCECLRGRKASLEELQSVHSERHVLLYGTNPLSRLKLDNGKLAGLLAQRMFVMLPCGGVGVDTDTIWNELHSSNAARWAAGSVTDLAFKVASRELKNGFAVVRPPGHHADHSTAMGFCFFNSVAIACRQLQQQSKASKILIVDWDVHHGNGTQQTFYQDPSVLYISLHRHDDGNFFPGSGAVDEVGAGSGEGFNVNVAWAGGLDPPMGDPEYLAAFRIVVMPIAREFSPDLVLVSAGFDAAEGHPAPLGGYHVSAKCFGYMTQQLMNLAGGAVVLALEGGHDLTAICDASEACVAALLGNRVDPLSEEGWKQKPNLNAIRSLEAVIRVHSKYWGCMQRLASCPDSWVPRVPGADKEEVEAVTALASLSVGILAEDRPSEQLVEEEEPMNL
Description: as §1

rhHDAC 2 = rhHDAC 2 (Homo sapiens, UniProt Q92769); assay: Inhibition of recombinant human HDAC isoforms; assay type: biochemical; conditions: mean ± SD, triplicate per plate, min two plates; read-out: ED50 rhHDAC 2
Description: as §1

rhHDAC 8 = biological target: T2, rhHDAC 8 (Homo sapiens, UniProt Q9BY41); assay: Inhibition of recombinant human HDAC isoforms; assay type: biochemical; conditions: mean ± SD, triplicate per plate, min two plates; read-out: ED50 rhHDAC 8
T2 sequence (Q9BY41 1-377): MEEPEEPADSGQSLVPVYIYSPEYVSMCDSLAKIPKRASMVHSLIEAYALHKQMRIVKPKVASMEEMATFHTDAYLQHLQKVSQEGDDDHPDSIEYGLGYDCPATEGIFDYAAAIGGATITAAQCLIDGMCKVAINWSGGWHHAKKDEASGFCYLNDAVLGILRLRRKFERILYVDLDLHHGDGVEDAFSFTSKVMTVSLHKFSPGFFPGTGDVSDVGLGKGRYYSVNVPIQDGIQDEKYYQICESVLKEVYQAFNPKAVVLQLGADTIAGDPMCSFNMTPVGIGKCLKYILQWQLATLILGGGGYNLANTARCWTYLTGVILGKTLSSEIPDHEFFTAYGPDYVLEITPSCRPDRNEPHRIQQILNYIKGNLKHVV
Description: as §1

rhHDAC 3 = rhHDAC 3 (Homo sapiens, UniProt O15379); assay: Inhibition of recombinant human HDAC isoforms; assay type: biochemical; conditions: mean ± SD, triplicate per plate, min two plates; read-out: ED50 rhHDAC 3
Description: as §1

rhHDAC 6 = biological target: T3, rhHDAC 6 (Homo sapiens, UniProt Q9UBN7); assay: Inhibition of recombinant human HDAC isoforms; assay type: biochemical; conditions: mean ± SD, triplicate per plate, min two plates; read-out: ED50 rhHDAC 6
T3 sequence (Q9UBN7 1-1215): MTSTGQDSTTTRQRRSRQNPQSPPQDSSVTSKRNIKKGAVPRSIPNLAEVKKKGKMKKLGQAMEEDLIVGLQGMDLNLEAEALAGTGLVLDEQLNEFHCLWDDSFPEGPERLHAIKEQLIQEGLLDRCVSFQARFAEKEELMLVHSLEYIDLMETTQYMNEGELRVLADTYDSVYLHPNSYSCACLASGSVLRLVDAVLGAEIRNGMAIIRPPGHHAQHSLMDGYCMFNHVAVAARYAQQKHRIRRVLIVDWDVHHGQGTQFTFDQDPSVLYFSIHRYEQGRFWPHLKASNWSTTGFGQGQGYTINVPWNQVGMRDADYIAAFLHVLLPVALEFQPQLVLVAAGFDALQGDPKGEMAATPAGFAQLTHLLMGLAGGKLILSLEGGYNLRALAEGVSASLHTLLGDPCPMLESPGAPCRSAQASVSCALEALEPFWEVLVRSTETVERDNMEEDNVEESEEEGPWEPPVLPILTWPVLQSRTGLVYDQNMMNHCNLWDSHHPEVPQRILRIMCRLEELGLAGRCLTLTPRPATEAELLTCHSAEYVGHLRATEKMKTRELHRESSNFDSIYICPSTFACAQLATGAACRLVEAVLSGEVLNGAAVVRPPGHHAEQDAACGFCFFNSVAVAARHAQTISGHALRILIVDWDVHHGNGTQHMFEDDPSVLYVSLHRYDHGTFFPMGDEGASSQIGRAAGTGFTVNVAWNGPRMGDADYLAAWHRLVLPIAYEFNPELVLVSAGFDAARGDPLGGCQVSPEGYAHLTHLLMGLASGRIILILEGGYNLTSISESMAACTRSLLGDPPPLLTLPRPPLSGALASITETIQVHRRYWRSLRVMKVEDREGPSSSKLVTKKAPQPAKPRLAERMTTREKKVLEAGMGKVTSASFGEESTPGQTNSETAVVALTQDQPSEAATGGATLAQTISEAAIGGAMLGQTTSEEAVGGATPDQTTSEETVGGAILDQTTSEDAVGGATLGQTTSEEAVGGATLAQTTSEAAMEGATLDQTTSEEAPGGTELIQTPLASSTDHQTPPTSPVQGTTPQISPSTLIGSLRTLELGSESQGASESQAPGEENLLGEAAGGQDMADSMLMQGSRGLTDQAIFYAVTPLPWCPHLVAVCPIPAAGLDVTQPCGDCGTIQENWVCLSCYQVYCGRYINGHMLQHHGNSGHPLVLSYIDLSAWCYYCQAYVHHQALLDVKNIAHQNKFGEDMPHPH
Description: as §1

rhHDAC 4 = rhHDAC 4 (Homo sapiens, UniProt P56524); assay: Inhibition of recombinant human HDAC isoforms; assay type: biochemical; conditions: mean ± SD, triplicate per plate, min two plates; read-out: ED50 rhHDAC 4
Description: as §1

rhHDAC 1 = rhHDAC 1 (Homo sapiens, UniProt Q13547); assay: Inhibition of recombinant human HDAC isoforms; assay type: biochemical; conditions: mean ± SD, triplicate per plate, min two plates; read-out: ED50 rhHDAC 1
Description: as §1

Sequence of rhHDAC 1 (Q13547 whole entry, canonical isoform): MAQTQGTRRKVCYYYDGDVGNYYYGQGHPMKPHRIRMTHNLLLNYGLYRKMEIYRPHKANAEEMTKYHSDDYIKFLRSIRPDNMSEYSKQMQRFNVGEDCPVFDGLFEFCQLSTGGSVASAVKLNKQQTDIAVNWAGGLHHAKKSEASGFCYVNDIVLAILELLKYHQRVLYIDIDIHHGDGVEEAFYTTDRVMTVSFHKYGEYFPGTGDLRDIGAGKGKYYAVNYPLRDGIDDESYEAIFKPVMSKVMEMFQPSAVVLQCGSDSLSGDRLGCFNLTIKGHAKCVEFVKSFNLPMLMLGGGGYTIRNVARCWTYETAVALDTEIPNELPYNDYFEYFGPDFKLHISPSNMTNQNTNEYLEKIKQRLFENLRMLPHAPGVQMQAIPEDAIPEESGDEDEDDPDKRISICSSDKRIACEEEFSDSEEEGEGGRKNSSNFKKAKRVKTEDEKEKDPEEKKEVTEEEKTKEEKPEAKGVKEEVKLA
Sequence of rhHDAC 2 (Q92769 whole entry, canonical isoform): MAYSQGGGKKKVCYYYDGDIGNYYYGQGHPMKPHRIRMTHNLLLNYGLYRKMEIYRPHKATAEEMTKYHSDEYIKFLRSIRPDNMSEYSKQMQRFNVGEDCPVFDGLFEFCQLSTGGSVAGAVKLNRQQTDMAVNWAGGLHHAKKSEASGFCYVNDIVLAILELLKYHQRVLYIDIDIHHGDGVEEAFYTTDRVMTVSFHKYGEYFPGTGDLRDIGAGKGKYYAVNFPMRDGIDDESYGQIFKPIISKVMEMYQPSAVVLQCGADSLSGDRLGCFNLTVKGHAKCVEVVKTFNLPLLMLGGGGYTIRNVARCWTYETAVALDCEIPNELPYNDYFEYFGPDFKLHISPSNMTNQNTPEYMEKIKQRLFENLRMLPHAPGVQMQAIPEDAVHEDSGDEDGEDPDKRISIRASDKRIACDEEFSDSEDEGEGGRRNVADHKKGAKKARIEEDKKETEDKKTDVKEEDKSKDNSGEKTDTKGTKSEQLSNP
Sequence of rhHDAC 3 (O15379 whole entry, canonical isoform): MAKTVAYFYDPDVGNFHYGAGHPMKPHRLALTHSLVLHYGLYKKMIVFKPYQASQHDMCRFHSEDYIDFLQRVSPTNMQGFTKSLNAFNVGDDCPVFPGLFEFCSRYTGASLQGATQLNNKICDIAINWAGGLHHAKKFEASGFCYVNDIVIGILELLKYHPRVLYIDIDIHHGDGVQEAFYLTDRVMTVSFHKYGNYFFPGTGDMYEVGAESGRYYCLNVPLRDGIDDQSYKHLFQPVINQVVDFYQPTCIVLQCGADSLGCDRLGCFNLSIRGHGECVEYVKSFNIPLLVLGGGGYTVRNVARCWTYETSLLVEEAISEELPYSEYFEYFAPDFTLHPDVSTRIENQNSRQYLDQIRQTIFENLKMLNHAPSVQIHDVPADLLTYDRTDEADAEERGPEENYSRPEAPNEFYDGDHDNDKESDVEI
Sequence of rhHDAC 3 (Q9Y618 395-489 partner limits assumed): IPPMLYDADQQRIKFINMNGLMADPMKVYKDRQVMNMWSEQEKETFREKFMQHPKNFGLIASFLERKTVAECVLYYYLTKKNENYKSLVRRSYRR
Sequence of rhHDAC 9 (Q9UKV0 whole entry, canonical isoform): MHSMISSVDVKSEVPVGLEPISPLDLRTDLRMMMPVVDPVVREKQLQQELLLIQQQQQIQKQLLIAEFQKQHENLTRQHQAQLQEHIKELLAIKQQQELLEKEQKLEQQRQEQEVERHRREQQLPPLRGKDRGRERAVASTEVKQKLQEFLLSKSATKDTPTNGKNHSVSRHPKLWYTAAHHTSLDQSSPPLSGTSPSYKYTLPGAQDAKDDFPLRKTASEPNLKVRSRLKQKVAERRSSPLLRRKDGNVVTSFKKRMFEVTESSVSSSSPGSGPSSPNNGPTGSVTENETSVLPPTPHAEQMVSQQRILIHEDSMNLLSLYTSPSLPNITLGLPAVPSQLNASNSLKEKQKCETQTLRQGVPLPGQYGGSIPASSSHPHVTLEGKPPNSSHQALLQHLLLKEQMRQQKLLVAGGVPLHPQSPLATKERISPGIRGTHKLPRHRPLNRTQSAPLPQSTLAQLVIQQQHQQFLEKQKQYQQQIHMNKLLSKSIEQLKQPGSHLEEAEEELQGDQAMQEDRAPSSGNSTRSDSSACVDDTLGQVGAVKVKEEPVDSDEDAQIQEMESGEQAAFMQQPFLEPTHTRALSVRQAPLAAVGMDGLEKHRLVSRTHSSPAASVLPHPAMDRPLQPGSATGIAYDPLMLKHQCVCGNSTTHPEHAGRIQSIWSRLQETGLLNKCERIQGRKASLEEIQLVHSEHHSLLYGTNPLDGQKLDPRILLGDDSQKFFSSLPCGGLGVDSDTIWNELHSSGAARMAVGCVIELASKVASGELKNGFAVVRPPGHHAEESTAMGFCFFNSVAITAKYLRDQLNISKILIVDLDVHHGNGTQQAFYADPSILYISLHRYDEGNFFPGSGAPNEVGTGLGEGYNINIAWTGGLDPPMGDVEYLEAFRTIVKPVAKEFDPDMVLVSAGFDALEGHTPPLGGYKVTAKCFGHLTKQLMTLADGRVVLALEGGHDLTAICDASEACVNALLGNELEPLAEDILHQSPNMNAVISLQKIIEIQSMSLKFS
Sequence of rhHDAC 4 (P56524 whole entry, canonical isoform): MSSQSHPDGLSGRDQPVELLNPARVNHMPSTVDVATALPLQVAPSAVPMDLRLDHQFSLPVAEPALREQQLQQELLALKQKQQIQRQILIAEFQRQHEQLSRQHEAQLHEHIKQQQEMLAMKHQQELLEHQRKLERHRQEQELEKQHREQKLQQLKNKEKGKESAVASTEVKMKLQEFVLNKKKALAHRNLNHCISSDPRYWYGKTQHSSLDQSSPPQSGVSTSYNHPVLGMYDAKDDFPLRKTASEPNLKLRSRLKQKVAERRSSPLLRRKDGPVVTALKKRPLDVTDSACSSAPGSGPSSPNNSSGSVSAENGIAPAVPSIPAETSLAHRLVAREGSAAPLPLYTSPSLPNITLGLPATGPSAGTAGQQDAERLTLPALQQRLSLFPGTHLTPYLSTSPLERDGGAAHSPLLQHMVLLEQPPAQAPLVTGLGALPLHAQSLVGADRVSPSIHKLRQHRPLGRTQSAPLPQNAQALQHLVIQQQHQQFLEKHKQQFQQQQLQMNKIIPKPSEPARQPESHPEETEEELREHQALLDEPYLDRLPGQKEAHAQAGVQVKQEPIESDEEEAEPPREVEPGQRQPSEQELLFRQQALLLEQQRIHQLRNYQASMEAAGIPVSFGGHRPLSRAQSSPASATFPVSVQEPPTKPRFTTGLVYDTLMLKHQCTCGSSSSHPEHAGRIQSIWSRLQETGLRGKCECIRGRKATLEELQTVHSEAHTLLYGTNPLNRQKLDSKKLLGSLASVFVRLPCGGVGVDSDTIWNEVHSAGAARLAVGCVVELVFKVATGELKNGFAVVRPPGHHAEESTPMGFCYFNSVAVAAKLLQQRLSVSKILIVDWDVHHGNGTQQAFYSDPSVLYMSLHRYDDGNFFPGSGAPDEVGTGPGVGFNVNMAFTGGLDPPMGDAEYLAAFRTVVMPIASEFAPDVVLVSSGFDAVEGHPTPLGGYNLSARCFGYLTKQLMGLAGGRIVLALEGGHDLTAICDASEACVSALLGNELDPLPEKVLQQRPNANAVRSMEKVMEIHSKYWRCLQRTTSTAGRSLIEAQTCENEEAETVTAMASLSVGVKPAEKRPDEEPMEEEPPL

IC50 (HDAC (FDL_HELA)) [nM]	IC50 (Trypanosoma brucei (BSF)) [nM]	IC90 (Trypanosoma brucei (BSF)) [nM]	IC50 (rhHDAC 9) [nM]	IC50 (rhHDAC 7) [nM]	IC50 (rhHDAC 2) [nM]	IC50 (rhHDAC 8) [nM]	IC50 (rhHDAC 3) [nM]	IC50 (rhHDAC 6) [nM]	IC50 (rhHDAC 4) [nM]	IC50 (rhHDAC 1) [nM]	Compound
84 ± 53	34 ± 2	66 ± 4									O=C(/C=C/c1cccc(S(=O)(=O)N2CCN(c3ncccn3)CC2)c1)NO [Compound 1]
149 ± 6	64 ± 5	130 ± 5									O=C(/C=C/c1cccc(S(=O)(=O)N2CCN(c3ccc(Cl)cc3)CC2)c1)NO [Compound 2]
123 ± 76	86 ± 9	201 ± 5	86 ± 61	100 ± 97	55 ± 6	581 ± 334	2.8 ± 0.4	179 ± 115			O=C(/C=C/c1cccc(S(=O)(=O)N2CCN(c3ccccn3)CC2)c1)NO [Compound 3]
187 ± 82	123 ± 6	169 ± 8									O=C(/C=C/c1cccc(S(=O)(=O)N2CCN(c3cccc(Cl)c3)CC2)c1)NO [Compound 4]
	137 ± 7	220 ± 7									O=C(/C=C/c1cccc(S(=O)(=O)Nc2ccc(OC(F)(F)F)cc2)c1)NO [Compound 5]
191 ± 36	141 ± 9	224 ± 14									O=C(/C=C/c1cccc(S(=O)(=O)N2CCN(c3ccccc3F)CC2)c1)NO [Compound 6]
68 ± 36	154 ± 13	281 ± 19									O=C(/C=C/c1cccc(S(=O)(=O)N2CCN(c3ccccc3Cl)CC2)c1)NO [Compound 7]
10 ± 2	154 ± 13	306 ± 61									O=C(/C=C/c1cccc(S(=O)(=O)Nc2ccc(OC(F)F)cc2)c1)NO [Compound 8]
28 ± 4	155 ± 18	310 ± 40									COc1ccc2nc(/C=C/C(=O)NO)ccc2c1 [Compound 9]
212 ± 112	156 ± 3	224 ± 3	1180		36 ± 0.7	955 ± 166	295 ± 290	107 ± 13	870	76 ± 6	COc1ccc(N2CCN(S(=O)(=O)c3cccc(/C=C/C(=O)NO)c3)CC2)cc1 [Compound 10]
132 ± 103	167 ± 12	228 ± 2									O=C(/C=C/c1cccc(S(=O)(=O)N2CCN(c3ccccc3)CC2)c1)NO [Compound 11]
22 ± 2	198 ± 5	265 ± 5	145 ± 151		310 ± 28	328 ± 193	96 ± 46	305 ± 19		53 ± 3	COc1ccccc1N1CCN(S(=O)(=O)c2cccc(/C=C/C(=O)NO)c2)CC1 [Compound 12]
22 ± 2	198 ± 21	333 ± 28									COc1cccc(NS(=O)(=O)c2cccc(/C=C/C(=O)NO)c2)c1 [Compound 13]
269 ± 87	261 ± 38	485 ± 43									O=C(/C=C/c1cccc(S(=O)(=O)N2CCN(Cc3ccc4c(c3)OCO4)CC2)c1)NO [Compound 14]
20 ± 4	343 ± 17	710 ± 17	109 ± 56	216 ± 133	221 ± 141	211 ± 42	89 ± 32	35 ± 16	65 ± 20	44 ± 0.1	O=C(/C=C/c1cccc(S(=O)(=O)Nc2cccc(F)c2)c1)NO [Compound 15]
22	353 ± 16	648 ± 20									O=C(/C=C/c1ccc2ccccc2n1)NO [Compound 16]
42 ± 11	368 ± 23	651 ± 83									O=C(/C=C/c1cccc(S(=O)(=O)Nc2ccc(Cl)cc2)c1)NO [Compound 17]
13 ± 5	606 ± 81	956 ± 35	26 ± 3	42 ± 22	105 ± 64	167 ± 72	23 ± 2	36 ± 3	33 ± 1	19 ± 1	COc1ccc(NS(=O)(=O)c2cccc(/C=C/C(=O)NO)c2)cc1 [Compound 18]
23 ± 5	927 ± 57	2150 ± 140									COc1ccc(NS(=O)(=O)c2cccc(/C=C/C(=O)NO)c2)cc1OC [Compound 19]
29 ± 16	> 10000										O=C(/C=C/c1ccc2c(c1)OCO2)NCCCCCC(=O)NO [Compound 21]
20 ± 2	> 10000										O=C(/C=C/c1ccccc1)NCCCCCC(=O)NO [Compound 22]
	> 10000										CC(/C=C/c1ccccc1)=C\C(=O)NCCCCCC(=O)NO [Compound 23]
	> 10000										CN(CCCCCC(=O)NO)C(=O)/C=C/C=C/c1ccccc1 [Compound 24]
